2 molecules from publication PMC4912077 (PLoS ONE, 2016) can be followed below.

One assay has as its target NET (Homo sapiens, UniProt P23975). Nature of the assay: Monoamine reuptake inhibition assay, NET in HEK293 cells. It counts as cell-based. Also on record: expressed in transfected cells; host or cells: HEK293. As to conditions: for Hill slope NET reuptake inhibition: HEK293 cells. As to the method: (§1) Monoamine reuptake inhibition assays were performed via the NIMH PDSP as previously described.[28] In brief, the neurotransmitter transporter uptake assay kit (R8174) (Molecular Devices) was used. Human monoamine transporters (DAT, NET and SERT) were stably expressed in HEK293 cells. Assay buffer consisted of 20 mM HEPES, 1x HBSS at pH 7.4. Cells were plated in Pol-L-Lys (PLL) coated 384-well black clear bottom cell culture plates with a density of 15,000 cells/well. Cells were incubated for at least 6 h prior to assay. Media was removed and replaced with 20 μL assay buffer and 5 μL of drug or positive control (cocaine or nisoxetine) as a 5X stock. Cells were incubated for 30 min at 37°C. 25 μL of dye solution was then added and following an additional 30 min incubation (at 37°C) fluorescence intensity was measured using a FlexStation II (bottom read mode, excitation wavelength = […], emission = 520 nM with a cutoff of 510 nM). […] Additional details are available in the NIMH PDSP assay protocol book.

In the next assay the target is H1 (Homo sapiens, UniProt P35367). Nature of the assay: NIMH PDSP radioligand binding, H1. On the procedure: (§2) Radioligands and concentrations used for additional 45 CNS receptor binding assays are listed as supporting information (S1 Table). This work was performed by the National Institute of Mental Health Psychoactive Drug Screening Program (NIMH PDSP) as described previously.[26] Briefly target compounds were dissolved in DMSO and subjected to a primary screen at 10,000 nM concentration. […] Additional experimental details are available in the NIMH PDSP assay protocol book.

The target in assay [1] is T1, DAT (Homo sapiens, UniProt Q01959). Nature of the assay: NIMH PDSP radioligand binding, DAT. As to the method: as §2
Assay [2] concerns the target PCP site within the NMDAR channel. Briefly: NMDAR binding, [3H]-MK-801 displacement in rat forebrain homogenate.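 As to all read-outs here: IC50 by nonlinear regression of percent specific binding versus log concentration, Ki from IC50 via Cheng-Prusoff, raw counts in CPM, duplicates repeated at least three times.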 The following applies: for Ki: read-out: Ki ± SEM, [3H]-(+)-MK-801, rat forebrain, Cheng-Prusoff.
Procedure: (§3) The reaction was terminated by vacuum filtration using a 24 well cell harvester (Brandel, Gaithersburg, MD) over presoaked GF/B glass fiber filters (Brandel, Gaithersburg, MD). Filters were washed with room temperature assay buffer (3 x 5 mL). […] IC50 values were determined in Graphpad Prism 5.0 using non-linear regression with log-concentration plotted against percent specific binding. […] Ki values were calculated using the equation of Cheng and Prusoff [24]. […] Protein concentration was determined via the Bradford method using Coomassie protein assay reagent (Sigma, USA) [25] with rat albumin (Sigma, USA) as standard. Experiments were performed in duplicate and repeated a minimum of three times.
Another assay addresses KOR (Homo sapiens, UniProt P41145). Nature of the assay: NIMH PDSP radioligand binding, KOR. As to the method: as §2
The test system of the next assay is Sprague–Dawley rats. Briefly: Acoustic startle response (ASR) magnitude in rats. It is filed as in vivo, rat. As to the method:
Male Sprague–Dawley rats from Harlan Industries (Indianapolis, IN, USA; initial weight 250–275 g) were housed in pairs under a 12-h reverse light/dark cycle (lights off at 0700 h). Use of a reversed light/dark cycle allows behavioral testing to be conducted during the awake phase of the light/dark cycle. Food and water were available ad libitum. Animals were acclimatized for approximately 1 wk after arrival prior to behavioral testing and maintained in Association for Assessment and Accreditation of Laboratory Animal Care (AAALAC)-approved facilities that meet all federal and state guidelines. Procedures were approved by the University of California San Diego institutional animal care and use committee. […]
Eight startle chambers (SR-LAB system, San Diego Instruments, San Diego, CA, USA) were used to measure startle reactivity in rats. […] The peak and average amplitudes of the startle response were detected by a piezoelectric accelerometer. At the onset of the startling stimulus, 100 1-ms readings were recorded, and the average amplitude was used to determine the magnitude of the startle response (measured in arbitrary units).
Acoustic startle test sessions consisted of startle trials (pulse-alone) and prepulse trials (prepulse + pulse). […] During each inter-trial interval, the movements of the animals were recorded once to measure response when no stimulus was present (data not shown). […]

In assay [3] the test system is PCP site within the NMDAR channel.
Procedure: as §3
Assay [4] deals with T1, DAT. Briefly: Monoamine reuptake inhibition assay, DAT in HEK293 cells. It is filed as cell-based. The arrangement: expressed in transfected cells; host or cells: HEK293. The following applies: for Hill slope DAT reuptake inhibition: HEK293 cells. As to the method: as §1
A further assay has as its target T2, Sigma 2 (Rattus norvegicus, UniProt Q5U3Y7).
T2 sequence (Q5U3Y7 1-176): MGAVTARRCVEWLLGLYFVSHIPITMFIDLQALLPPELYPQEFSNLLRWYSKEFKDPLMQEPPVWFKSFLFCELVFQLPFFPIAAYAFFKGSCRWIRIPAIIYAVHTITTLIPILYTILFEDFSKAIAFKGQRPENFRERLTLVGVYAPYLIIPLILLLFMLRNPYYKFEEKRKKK
Briefly: NIMH PDSP radioligand binding, Sigma 2. On the procedure:
as §2

Each structure is given as a SMILES string.

T1 sequence (Q01959 whole entry): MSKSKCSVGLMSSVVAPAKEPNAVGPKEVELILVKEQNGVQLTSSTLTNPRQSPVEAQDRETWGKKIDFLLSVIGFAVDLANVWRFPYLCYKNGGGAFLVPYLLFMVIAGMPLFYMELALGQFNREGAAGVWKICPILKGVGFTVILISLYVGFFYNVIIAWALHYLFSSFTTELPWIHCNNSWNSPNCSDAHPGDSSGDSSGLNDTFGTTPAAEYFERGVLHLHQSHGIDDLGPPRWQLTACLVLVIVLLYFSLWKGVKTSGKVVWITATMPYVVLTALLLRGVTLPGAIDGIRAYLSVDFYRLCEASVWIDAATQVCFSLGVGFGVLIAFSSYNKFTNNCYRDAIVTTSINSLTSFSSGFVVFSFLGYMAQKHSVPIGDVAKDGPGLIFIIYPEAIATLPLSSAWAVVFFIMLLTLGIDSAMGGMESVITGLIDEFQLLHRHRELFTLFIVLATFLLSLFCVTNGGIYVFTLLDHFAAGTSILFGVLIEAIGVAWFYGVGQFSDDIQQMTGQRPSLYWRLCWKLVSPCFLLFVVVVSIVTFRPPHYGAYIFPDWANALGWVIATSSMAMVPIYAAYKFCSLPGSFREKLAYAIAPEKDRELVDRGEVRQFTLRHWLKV
Sequence of NET (P23975 whole entry): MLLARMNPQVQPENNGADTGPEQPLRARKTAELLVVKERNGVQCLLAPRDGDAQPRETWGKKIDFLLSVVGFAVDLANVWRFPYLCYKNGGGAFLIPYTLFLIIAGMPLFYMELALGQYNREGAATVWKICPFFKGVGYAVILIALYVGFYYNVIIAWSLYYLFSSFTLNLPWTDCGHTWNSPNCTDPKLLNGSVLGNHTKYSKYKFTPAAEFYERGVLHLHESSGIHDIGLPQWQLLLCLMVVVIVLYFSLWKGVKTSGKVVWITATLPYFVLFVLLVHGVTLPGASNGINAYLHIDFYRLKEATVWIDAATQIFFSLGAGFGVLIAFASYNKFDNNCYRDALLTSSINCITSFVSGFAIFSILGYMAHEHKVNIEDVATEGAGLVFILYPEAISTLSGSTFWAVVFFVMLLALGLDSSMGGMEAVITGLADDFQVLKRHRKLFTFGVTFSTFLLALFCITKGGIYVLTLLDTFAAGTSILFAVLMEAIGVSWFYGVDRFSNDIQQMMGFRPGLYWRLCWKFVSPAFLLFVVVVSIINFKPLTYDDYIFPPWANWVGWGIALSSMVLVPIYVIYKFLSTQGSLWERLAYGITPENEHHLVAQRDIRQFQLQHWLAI
Sequence of H1 (P35367 whole entry): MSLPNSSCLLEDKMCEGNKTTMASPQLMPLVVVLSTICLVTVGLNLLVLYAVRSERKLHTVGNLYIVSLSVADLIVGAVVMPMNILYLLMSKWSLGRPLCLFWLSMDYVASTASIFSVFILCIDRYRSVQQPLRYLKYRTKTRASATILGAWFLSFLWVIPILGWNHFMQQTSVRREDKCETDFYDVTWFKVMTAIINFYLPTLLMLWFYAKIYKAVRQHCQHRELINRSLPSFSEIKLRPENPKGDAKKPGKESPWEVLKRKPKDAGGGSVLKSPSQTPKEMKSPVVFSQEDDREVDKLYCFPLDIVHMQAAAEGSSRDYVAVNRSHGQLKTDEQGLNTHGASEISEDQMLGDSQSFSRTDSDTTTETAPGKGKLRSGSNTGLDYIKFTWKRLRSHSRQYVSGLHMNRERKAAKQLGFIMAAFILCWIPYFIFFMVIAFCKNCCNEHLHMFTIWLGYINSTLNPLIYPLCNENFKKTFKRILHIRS
Sequence of KOR (P41145 whole entry): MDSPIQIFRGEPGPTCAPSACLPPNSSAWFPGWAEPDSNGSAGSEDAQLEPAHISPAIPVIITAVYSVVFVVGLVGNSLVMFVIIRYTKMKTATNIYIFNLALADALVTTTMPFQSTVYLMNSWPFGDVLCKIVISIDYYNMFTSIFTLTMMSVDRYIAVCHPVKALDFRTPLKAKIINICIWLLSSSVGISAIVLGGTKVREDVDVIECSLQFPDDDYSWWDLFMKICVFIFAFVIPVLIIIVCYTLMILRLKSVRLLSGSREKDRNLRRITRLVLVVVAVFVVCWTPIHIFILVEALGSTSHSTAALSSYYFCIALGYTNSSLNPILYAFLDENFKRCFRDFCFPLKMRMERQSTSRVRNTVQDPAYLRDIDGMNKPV

On to `COc1ccccc1C(Cc1ccccc1)N1CCCCC1` (centres unmarked) [2-MXP, 2-methoxydiphenidine], for which the IC50 – broadly, the concentration that inhibits the measured activity by half – is 35200 nM against NET, 56.5 ± 5.8 nM in assay [3] and 30000 nM on DAT [4]. The “Hill slope NET reuptake inhibition” value on NET stood at 2.04. In addition, the Ki (commonly the equilibrium dissociation constant of an inhibitor or competing ligand from its target) amounted to 533 nM on H1; 2910 nM on DAT [1]; 36 ± 3.7 nM in assay [2]; 1690 nM on KOR; 508 nM at Sigma 2. The “acoustic startle response (ASR) magnitude” value with Sprague–Dawley rats (20 mg/kg s.c., vehicle 175.9 ± 29.2) is recorded as 78.8 ± 11.9 arbitrary units. Besides, at DAT [4], the “Hill slope DAT reuptake inhibition” value came out at 0.81.

Turning to `c1ccc(CC(c2ccccc2)N2CCCCC2)cc1` (centres unmarked) [DPH, diphenidine], the values for the IC50 (against NET; in [3]; against DAT [4]) were 9250 nM, 28.6 ± 3.5 nM and 1990 nM, respectively. Also, on NET, the “Hill slope NET reuptake inhibition” value is recorded as 0.97. Moreover, the Ki was 1340 nM at H1; 317 nM on DAT [1]; 18.2 ± 2.2 nM in assay [2]; 3900 nM on KOR; 193 nM on Sigma 2. The “NMDAR affinity relative to ketamine” value in assay [2] (higher affinity) is reported as ~ 18 fold. Further, the “effect on magnitude of the ASR” value with Sprague–Dawley rats (1.25–30 mg/kg s.c., both experiments) is reported as “did not alter the magnitude of the ASR”. Moreover, the “Hill slope DAT reuptake inhibition” value at DAT [4] worked out at 0.91.
